The subject of one data set is SZ95 sebocytes. In words: Inhibition of lipid synthesis in SZ95 sebocytes. The data set is classed as cell-based, human. Conditions: 96-well microtiter plate format. As to the method: The immortalized human sebocyte cell line, SZ95, was maintained in culture as described in Zouboulis, C. C. et al., J. Invest. Dermatol. (1999), Vol. 113, pp. 1011-1020. Lipid synthesis was stimulated by treating SZ95 cells with arachidonic acid (AA). For measurement of lipid production and lipid inhibition studies, test compounds were dissolved in dimethylsulfoxide (DMSO) and added at the desired concentration in 96-well microtiter plates. The cells were then cultured for up to 72 hours before the plates were washed 3 times with PBS and a final volume of 200 μL PBS/well was added. […] Plate fluorescence was then quantified using a fluorometric plate reader (excitation wavelength: 490 nm; emission wavelength: 590 nm). Inhibition of lipid levels by the test compound was expressed as the % reduction of the fluorescence of AA-stimulated cells in the presence of the test compound relative to the values obtained for the unstimulated control cells. Cell viability was measured by utilizing the conversion of a tetrazolium reagent (MTS) to a colored-formazan product by live cells. […] The color development of the wells was measured using a plate reader at an absorbance of […]. Effect on cell viability by the test compound was expressed as the % reduction of the absorbance for AA-stimulated cells in the presence of the test compound relative to the values obtained for the untreated control cells.

Data set [1] concerns hamster ear sebaceous glands. In words: Hamster ear sebaceous gland model, repeat topical application. It is filed as in vivo, Syrian golden hamster. As to the method: The Syrian golden hamster ([…]) ear sebaceous gland model was used to evaluate the effect of repeat application of TOFA and TOFA analogs. Male animals were employed since they have larger sebaceous glands than females a consequence of their higher endogenous levels of androgenic hormones. To define compound effects, cross-sections prepared from hamster ears were treated with the neutral lipid-specific stain Oil Red O. Staining results were compared to the untreated ear of the same animal in order to account for any changes in the overall physiological state of the animal as well as potential systemic effects stemming from local drug application.
Typically, compounds were prepared and applied in 40% dimethyl acetamide (DMA)/30% acetone/30% ethanol (vehicle). Animals were typically 10-12 weeks of age and 100-150 g bodyweight at the start of the experiment. Treatment groups consisted of 5-8 animals. Non-anesthetized hamsters were administered the test material onto the ventral surface of the right ear using a pipette at a volume of 20 μl per ear. Materials were gently massaged into the treatment site with a gloved finger for approximately 15 sec. Hamsters received treatment once daily for 15-28 consecutive days. Application of the test articles occurred within the same 4-hour period on each application day. The left ear remained untreated and served as an internal control site. Animals were evaluated daily for general appearance and potential clinical signs related to treatment such as edema, erythema, discoloration or other changes to the ears. Hamsters were also assessed for general health by coat appearance, behavior, and activity level.
Animals were euthanized by CO2 asphyxiation approximately 16-20 h following the final (21st) application. Tissue samples for sebaceous gland analysis were subsequently taken by histology personnel. The right (treated) and left (untreated) ears were carefully removed from euthanized hamsters. A 3.5 mm punch biopsy of the treated ear was marked with a marking dye on the ventral surface. A punch biopsy of the untreated ear was marked with a separate tissue-marking dye on the ventral surface. Tissues were embedded in a labeled mold filled with “Neg 50” cryo-embedding medium and frozen on liquid nitrogen. These blocks were sequentially wrapped in Parafilm® then aluminum foil for storage at −70° C. until required.
To assess sebaceous gland status, ear cross-sections were initially cut at a thickness of approximately 8 μm onto glass slides and immediately fixed with 10% buffered formalin. Sections were stained with the lipid-specific Oil Red O dye by standard methods, covered with Faramount (Dakocytomation, Ca) acrylic mounting medium, cover slipped and then allowed to set. […] Tissue sections stained with Oil Red O were viewed with a Spot RT digital camera mounted on an Olympus BX60 microscope. An image of the section was taken using the 4× microscope objective. The image was saved using the unique animal identification number, slide number, and magnification. Relative sebaceous gland areas (red staining areas) were determined using Image-Pro software (Media Cybernetics Inc., Silver Spring, Md.). The area of image analysis was the dermis which included the region from the epidermal-dermal junction to the midline of the tissue demarcated by the central cartilage line. Data was expressed as percentage of the area of the tissue cross section which was red in color, representative of lipid-containing structures, in comparison to the total area analyzed.
In these experiments, the compound of the invention, TOFA and vehicle were applied onto male hamster ears. At the end of treatment, the hamsters were sacrificed and the area of sebaceous glands in the treated area was determined. […]

The nature of data set [2]: Determination of solubility in synthetic sebum. It is filed as physicochemical. The note with it: oil or lipid, thermodynamic from solid, 32° C., agitated overnight, HPLC, read-out: Solubility in Liquid Synthetic Sebum. As to the method:
Compounds described herein can be tested to evaluate their solubility in lipids. To determine the solubility, a synthetic sebum mixture was used. More specifically, approximately 5 mg of a compound was added into 1.5 ml eppendorf tubes, which was then combined with 0.1 ml of synthetic sebum and then briefly vortexed. Mixtures were placed samples in a shaker pre-heated to 32° C. and then agitated overnight. Prior to sampling for HPLC analysis, tubes were placed in an eppendorf centrifuge and spun at 13000 rpm for 5 min to pellet the insoluble drug portion. Following centrifugation, 20 ul of the top portion of the soluble fraction was sampled, in triplicate, into a 2 ml HPLC vial for analysis and the mass recorded. One ml of THF was then added to each vial to solubilize sebum. To determine their concentrations, HPLC analysis of all compounds was carried out under the same running conditions.

For data set [3], the system named is moderate to severe acne patients. The note with it: oral, at 12 weeks; cited from earlier work.
[4] abbreviates: 21 consecutive days, 75 mM, ear cross-sections (FIG. 3).

In brackets after ≈: the same amount, converted by molar mass.

As for `CCCCC/C=C\C/C=C\C/C=C\C/C=C\CCCC(=O)O` [arachidonic acid], the “increase of SZ95 sebocyte lipid levels” value in the data set on SZ95 sebocytes was “approximately 5 fold”.

For orientation: solubility means the concentration that dissolves in the medium under given conditions. Consider `CCCCCCCCCCCCCCOc1ccc(C(=O)O)o1` [TOFA, 5-(tetradecyloxy)-2-furancarboxylic acid], for which the “inflammatory cell presence in skin sections” value in data set [1] (setting [4]) was “No appreciable inflammatory cell presence”. Besides, the “tolerability of repeat topical applications” value in data set [1] (hamster, in vivo) was “well-tolerated”. The solubility in data set [2] is 1.5 ± 0.4 mg/mL (≈ 4.62 mM).

Take `CCCCCCCCCCCCCCOc1ccc(C(=O)OC(C)C)o1` [Compound B, isopropyl 5-(tetradecyloxy)furan-2-carboxylate]: the solubility in data set [2] was 43 ± 0.5 mg/mL (≈ 117 mM).

As to `CCCCCCCCCCCCCCOc1ccc(C(=O)OCc2oc(=O)oc2C)o1` [Compound C, (5-methyl-2-oxo-1,3-dioxol-4-yl)methyl 5-(tetradecyloxy)furan-2-carboxylate], the solubility in data set [2] amounted to 13.6 ± 1.9 mg/mL (≈ 31.2 mM).

For the compound `CCCCCCCCCCCCCCOc1ccc(C(=O)OCC(F)(F)F)o1` [Compound A, 2,2,2-trifluoroethyl 5-(tetradecyloxy)furan-2-carboxylate], in data set [1] (setting [4]), the “inflammatory cell presence in skin sections” value is on record as “No appreciable inflammatory cell presence” and the “sebaceous gland area, histological appearance (Oil Red O)” value is “Reduced sebaceous gland area”. Besides, the “average gland area lower in comparison to vehicle-treated animals” value in data set [1] (after 21 days of application in 40% DMA/30% acetone/30% ethanol (FIG. 2)) is given as 63.5%. The “sebaceous gland counts versus control values” in data set [1] (samples prepared two weeks after completion of 21-day treatment) is “significantly lower”. For the same compound, in data set [1] (topical daily at 75 mM for 21 days in 40% DMA/30% acetone/30% ethanol), the “sebaceous gland area compared to TOFA and vehicle (FIG. 1)” value is recorded as “ability to reduce sebaceous gland area”. Further, in data set [2], the solubility was 28.9 ± 9.2 mg/mL (≈ 71.1 mM).

With `CC(c1cc2ccccc2s1)N(O)C(N)=O` (centres unmarked) [Zileuton], in data set [3], the “reduction in inflammatory lesions” value is reported as 71% and the “reduction of sebum lipids” value is 65%.

Values taken from patent publication US9434718B2, “TOFA analogs useful in treating dermatological disorders or conditions” (Dermira (Canada), Inc., priority 2009, dated 2016).
